Test results as given in ChEMBL document CHEMBL4715804, “A Fluorescence Polarization Biophysical Assay for the Naegleria DNA Hydroxylase Tet1” (ACS Med Chem Lett, 2016).
pIC50, pKd, pKi: −log10 of the molar value. Active and inactive are the calls of the source. The rule behind the calls is not given here.

What was measured:
[1] = (§1) Displacement of sodium 5-(3-(8-(3-carboxy-N-hydroxyacrylamido)octyl)thioureido)-2-(6-hydroxy-3-oxo-3H-xanthen-9-yl)benzoate from Naegleria Tet-1 incubated for 20 mins followed by sodium 5-(3-(8-(3-carboxy-N-hydroxyacrylamido)octyl)thioureido)-2-(6-hydroxy-3-oxo-3H-xanthen-9-yl)benzoate addition and further incubated 4 hrs and measured upto 20 hrs by competition fluorescence polarization assay
[2] = Binding affinity to Naegleria Tet1 assessed as dissociation constant incubated for 4 hrs and measured upto 20 hrs by fluorescence polarization assay
Naegleria = assay: as §1, with “Tet-1 at 5 mM” for “Tet-1”; conditions: time hrs <=20

Structure (SMILES) | pIC50 [1] | pKi [1] | pKd [2] | inhibition (Naegleria)
O=C(O)c1ccnc(C(=O)O)c1 | 4.57 | 5.05 |  | 
O=C(O)/C=C/C(=O)N(O)CCCCCCCCNC(=S)Nc1ccc(-c2c3ccc(=O)cc-3oc3cc(O)ccc23)c(C(=O)O)c1 |  |  | 6.60 | 
O=C(O)CC[C@@H](O)C(=O)O | 2.28 | 2.77 |  | 
O=C(O)CCC(=O)C(=O)O [ALPHA-KETOGLUTARIC ACID] | 3.60 | 4.08 |  | 
O=C(O)CNC(=O)C(=O)O [N-OXALYLGLYCINE] | 4.31 | 4.80 |  | 
Nc1nc(=O)n([C@H]2C[C@H](O)[C@@H](CO)O2)cc1CO |  |  |  | inactive
Cc1cn([C@H]2C[C@H](O)[C@@H](CO)O2)c(=O)nc1N |  |  |  | inactive
